Measurements from patent US7820405B2, “Specific bacterial inclusions in bone marrow cells indicate systematic lupus erthematosus, and treatment for lupus” (Sphingomanas Research Partners, L.P., priority 2005, dated 2010).

System: intra-erythrocytic bacterial structures (Mycoplasma haemosapiens)
Assay type: in vivo, human
Details: Patient A, during doxycycline 100 mg twice daily; declined from about 16% before therapy

C[C@H]1c2cccc(O)c2C(=O)C2=C(O)[C@]3(O)C(=O)C(C(N)=O)=C(O)[C@@H](N(C)C)[C@@H]3[C@@H](O)[C@@H]21 [doxycycline]
percentage of parasitized erythrocytes: approximately 8%
